Data taken from patent US20260293949A1, “CARBONATION SENSATION IMPARTING OR ENHANCING AGENT” (TAKASAGO INTERNATIONAL CORPORATION, priority 2022, published 2026).

Experiment: Sensory evaluation of fizziness enhancement in carbonated water (WILKINSON TANSAN), specialized panelists
Format: in vivo
Conditions: for Fizziness enhancement evaluation result: average score of seven panelists
Procedure: In the following Examples, the action and effect were verified using a value obtained by calculating an average score of scores for imparting or enhancing fizziness by sensory evaluation conducted by specialized panelists. The expression “1 point” in the evaluation is the evaluation in the case where no component is added at all (no addition).
Diethyl sebacate (manufactured by Inoue Perfumery Mfg. Co., Ltd., the same applies to the following Examples) was separately added to “WILKINSON (registered trademark) TANSAN (manufactured by Asahi Soft Drinks Co., Ltd.)” so as to reach the concentrations shown in Table 2 below, and sensory evaluation was performed by seven specialized panelists to determine the extent to which fizziness was enhanced as compared with a control in which diethyl sebacate was not added.
Diisobutyl adipate (manufactured by Inoue Perfumery Mfg. Co., Ltd., the same applies to the following Examples) was separately added to “WILKINSON (registered trademark) TANSAN (manufactured by Asahi Soft Drinks Co., Ltd.)” so as to reach the concentrations shown in Table 3 below, and sensory evaluation was performed by seven specialized panelists to determine the extent to which fizziness was enhanced as compared with a control in which diisobutyl adipate was not added.
Dimethyl sebacate (manufactured by Tokyo Chemical Industry Co., Ltd.) was separately added to “WILKINSON (registered trademark) TANSAN (manufactured by Asahi Soft Drinks Co., Ltd.)” so as to reach the concentrations shown in Table 4 below, and sensory evaluation was performed by seven specialized panelists to determine the extent to which fizziness was enhanced as compared with a control in which dimethyl sebacate was not added.
Dipropyl adipate (manufactured by Tokyo Chemical Industry Co., Ltd.) was separately added to “WILKINSON (registered trademark) TANSAN (manufactured by Asahi Soft Drinks Co., Ltd.)” so as to reach the concentrations shown in Table 5 below, and sensory evaluation was performed by seven specialized panelists to determine the extent to which fizziness was enhanced as compared with a control in which dipropyl adipate was not added.

CCCOC(=O)CCCCC(=O)OCCC [Dipropyl adipate, dipropyl adipate]
amelioration of mouthfeel (in words): effect of ameliorating the mouthfeel was also confirmed
fizziness enhancement (in words): fizziness of carbonated water can be enhanced
Fizziness enhancement evaluation result (0.1 ppm, 1 to 5): 1.1 points
Fizziness enhancement evaluation result (0.5 ppm, 1 to 5): 1.4 points
Fizziness enhancement evaluation result (1 ppm, 1 to 5): 1.9 points
Fizziness enhancement evaluation result (5 ppm, 1 to 5): 2.6 points
Fizziness enhancement evaluation result (10 ppm, 1 to 5): 3.0 points
Fizziness enhancement evaluation result (20 ppm, 1 to 5): 1.7 points
Fizziness enhancement evaluation result (50 ppm, 1 to 5): 1.4 points
Fizziness enhancement evaluation result (100 ppm, 1 to 5): 1.1 points

COC(=O)CCCCCCCCC(=O)OC [Dimethyl sebacate, dimethyl sebacate]
amelioration of mouthfeel (in words): effect of ameliorating the mouthfeel was also confirmed
fizziness enhancement (in words): fizziness of carbonated water can be enhanced
Fizziness enhancement evaluation result (0.1 ppm, 1 to 5): 1.1 points
Fizziness enhancement evaluation result (0.5 ppm, 1 to 5): 1.6 points
Fizziness enhancement evaluation result (1 ppm, 1 to 5): 2.0 points
Fizziness enhancement evaluation result (5 ppm, 1 to 5): 2.4 points
Fizziness enhancement evaluation result (10 ppm, 1 to 5): 3.1 points
Fizziness enhancement evaluation result (20 ppm, 1 to 5): 2.6 points
Fizziness enhancement evaluation result (50 ppm, 1 to 5): 1.4 points
Fizziness enhancement evaluation result (100 ppm, 1 to 5): 1.3 points

CC(C)COC(=O)CCCCC(=O)OCC(C)C [Diisobutyl adipate, diisobutyl adipate]
amelioration of mouthfeel (in words): effect of ameliorating the mouthfeel was also confirmed
fizziness enhancement (in words): fizziness of carbonated water can be enhanced
Fizziness enhancement evaluation result (0.005 ppm, 1 (not enhanced) to 5 (extremely enhanced)): 1.1 points
Fizziness enhancement evaluation result (0.01 ppm, 1 to 5): 1.6 points
Fizziness enhancement evaluation result (0.1 ppm, 1 to 5): 3.4 points
Fizziness enhancement evaluation result (0.5 ppm, 1 to 5): 3.6 points
Fizziness enhancement evaluation result (1 ppm, 1 to 5): 3.4 points
Fizziness enhancement evaluation result (5 ppm, 1 to 5): 1.7 points
Fizziness enhancement evaluation result (10 ppm, 1 to 5): 1.3 points
